Marks after values point to notes of the source that are not given here.
Key:
Assay type in all cases: in vivo, mouse (DBA/1)
[1] = tested on: Mice in which rheumatoid arthritis was induced; experiment: Assessment of arthritis severity (score of edema and flare at fore and hind paws); settings: 0-4 per leg, maximum 16; after three times of administration; in comparison with negative control group
Method: (§1) Chicken type II collagen (Sigma-Aldrich) was mixed with 0.05 M acetic acid at 4° C. to the concentration of 2 mg/ml. The resulting mixture and Freund's complete adjuvant (CFA) (Sigma-Aldrich) were mixed at an equal amount ratio, and then the resulting mixture was homogenized at 30000 rpm for three minutes by using a homogenizer (Polytron PT3100D) to prepare an antigen material for administration. For a first immunization, the antigen material for administration was intradermally injected to a mouse tail (DBA/1 mouse, six weeks old) (Day 1). Three weeks later, the CFA was replaced by Freund's incomplete adjuvant (IFA) (Sigma-Aldrich), and boosting was performed by the same method.
(§2) Mice were divided into five groups, and saline solution, hASCs, and CTLA4Ig-hASC were intravenously injected to mouse tails on Day 63, Day 70, Day 77, and Day 84 after immunization as shown in Table 1 below.
In the mice of Example 1-2, from Day 62 after the immunization, the severity of arthritis at the fore paw and the hind paw was assessed three times per week in a score from 0 point (No arthritis) to 4 point (Severe arthritis) according to the degree of edema and flare. The assessment was performed at each leg with the maximum possible score of 16. The clinical score was measured at each mouse by Day 90 after the immunization. […]

[2] = tested on: cytokine; experiment: Multiplex measurement of cytokine concentration in knee extract
Method: as §2
(§3) To verify the variation of cytokine expression according to transplantation of hASC or CTLA4Ig-hASC, the serum, knee extract, splenocytes, and lymph node cells obtained in Example 1-2 were prepared.
(§4) The cytokine concentration in serum, knee extract, and the obtained supernatant of the culture solutions of splenocytes and lymph node cells was measured by using a multiplex cytokine/chemokine kit (Milliplex MAP mouse cytokine/chemokine kit, Millipore) by following the protocol provided by the manufacturer. As cytokines, tumor necrosis factor (TNF)-αinterferon (IFN)-α, interleukin (IL)-1α, IL-1β, IL-2, IL-4, IL-6, IL-10, IL-12p70, IL-15, IL-17, keratinocyte-derived chemokine (KC), monocyte chemotactic protein (MCP)-1, macrophage inflammatory protein (MIP)-2, and regulated-upon-activation normal T-cell expressed and secreted (RANTES) were measured.
(§5) The cytokine concentration (pg/ml) in the splenocyte culture medium that was cultured in the presence of Type II collagen, ConA, an LPS is shown in Tables 4 to 6, respectively. The cytokine concentration (pg/ml) in the lymph node cell culture solution that was cultured in the presence of ConA is shown in Table 7.
(§6) The data obtained from each group was compared by performing a Kruskal Wallis test (†: P<0.05) or a (Mann-Whitney U test) (*: significant difference in comparison with the negative control group (p<0.05)).

[3] = tested on: Mice in which rheumatoid arthritis was induced; experiment: Histopathological assessment of knee cartilage (H&E, Safranin O); settings: H&E and Safranin O, Week 13 after first immunization
Text: as §2
(§7) Knee cartilage tissues were stained to investigate the degree of cartilage injury and bone injury by rheumatoid arthritis, and micro-computed tomography images were obtained to verify morphologic defects in paw joints.
In Week 13 after the first immunization, knee cartilage tissues were obtained from the animals of Example 1-2. The obtained knee cartilage tissues were fixed by using 10% (v/v) neutral buffered formalin (Sigma-Aldrich), and the resulting solution was stirred by using a rapid decalcifier (Thermo Scientific) for 24 hours to decalcify. When an osseous tissue was easily cut by a razor, it was assumed that the tissue was completely decalcified. The decalcified osseous tissue was dehydrate and embedded in paraffin. To assess histopathological injury, the paraffin-embedded tissue was cut into 4 μm-thick slices, and the paraffin was removed from the slices by using xylene. Then, the slices were rehydrated by using a graded alcohol, and stained by using hematoxylin and eosin (H&E) (DAKO) and Safranin O (IHC World). […]

[4] = tested on: cytokine; experiment: Cytokine concentration in splenocyte culture medium, cultured in the presence of LPS; settings: LPS 2.5 μg/ml, 48 hours
Method: as §2
(§8) Splenocytes of each group were separated. 2.5×10^5/well of splenocytes cultured in 96-well plate (Nunc) in a final volume of 200 μl including or not including 100 μg/ml of Type II collagen (Sigma Aldrich), 2.5 μg/ml of concanavalin A (ConA) (Sigma Aldrich), and 2.5 μg/ml of lipopolysaccharide (LPS) (Sigma Aldrich). The cells were incubated in humidified air at 37° C. for 48 hours. Then, the supernatant of the splenocyte culture medium was obtained and stored at −70° C. By the same method, lymph node cells were cultured in a culture medium including ConA, and the supernatant of lymph node cell culture solution was obtained.
as §4, §6

[5] = tested on: cytokine; experiment: Multiplex measurement of cytokine concentration in serum
Method: as §2, §3, §4, §5, §6

[6] = tested on: cytokine; experiment: Cytokine concentration in lymph node cell culture solution, cultured in the presence of ConA
Method: as §2, §3
Splenocytes of each group were separated. 2.5×10^5/well of splenocytes cultured in 96-well plate (Nunc) in a final volume of 200 μl including or not including 100 μg/ml of Type II collagen (Sigma Aldrich), 2.5 μg/ml of concanavalin A (ConA) (Sigma Aldrich), and 2.5 μg/ml of lipopolysaccharide (LPS) (Sigma Aldrich). […]
as §4, with “measured. […]” for “measured.”

[7] = tested on: cytokine; experiment: Cytokine concentration in splenocyte culture medium, cultured in the presence of ConA; settings: ConA 2.5 μg/ml, 48 hours
Method: as §2, §3, §8, §4, §5, §6

[8] = tested on: Mice in which rheumatoid arthritis was induced; experiment: ELISA of anti-mouse type II collagen antibody, C-telopeptide I and C-telopeptide II in serum; settings: comparison among negative control and treatment groups
Method: as §1, with “method. […]” for “method.”
In the serum obtained in Example 1-2, anti-mouse type II collagen antibody, C-terminal telopeptide of Type I collagen (C-telopeptide I) that was a Type I collagen discharged during osteoclastic bone resorption, and C-terminal telopeptide of Type II collagen (C-telopeptide II) that was a chondrolysis product were detected by ELISA.
Specifically, anti-mouse type II collagen antibody, C-telopeptide I, and C-telopeptide II in the serum were measured by using an anti-mouse type II antibody collagen ELISA kit (Astarte Biologics), RatLap™ EIA kit (Immunodiagnostic Systems Ltd.), and a type II collagen ELISA kit (CUSABIO), respectively. […]

[9] = tested on: cytokine; experiment: Cytokine concentration in splenocyte culture medium, cultured in the presence of Type II collagen; settings: Type II collagen 100 μg/ml, 48 hours
Method: as §2, §3, §8, §4
The cytokine concentration (pg/ml) in the splenocyte culture medium that was cultured in the presence of Type II collagen, ConA, an LPS is shown in Tables 4 to 6, respectively. The cytokine concentration (pg/ml) in the lymph node cell culture solution that was cultured in the presence of ConA is shown in Table 7. […]

[10] = tested on: Mice in which rheumatoid arthritis was induced; experiment: Micro-CT verification of morphologic defects in paw joints; settings: score 0-4
Text: as §2, §7
To verify morphological defects in paw joints, the mice paw obtained in Example 1-2 were fixed by using 4%(v/v) formalin (Sigma-Aldrich), and images of the mouse paws were obtained by using Inveon Preclinical CT (Siemens Healthcare) that is a micro-CT scanner at 40 μm of thickness, 0.6 second of exposure time, 70 keV of […] energy, and 400 μA of current. The images were reconstructed into three-dimensional images by using IRW software (Siemens Healthcare).
The data were compared among the groups by performing an ANOVA and then Tukey's multiple comparison tests. A significant difference in comparison with the negative control group was marked as “*” (p<0.05).

CN(Cc1cnc2nc(N)nc(N)c2n1)c1ccc(C(=O)N[C@@H](CCC(=O)O)C(=O)O)cc1 [MTX, methotrexate]
arthritis severity score [1]: a pattern that was similar to that of the negative control group | IL-1β concentration [2]: 4.54 ± 2.88 pg/mL | IL-6 concentration [2]: 19.37 ± 11.87 pg/mL | KC concentration [2]: 305.82 ± 147.86 pg/mL | MIP-2 concentration [2]: 50.36 ± 19.78 pg/mL | RANTES concentration [2]: 0.20 ± 0.07* pg/ml | destruction of the joint cartilage [3]: severely damaged | IL-1α concentration [4]: 112.01 ± 27.82 pg/mL | IL-4 concentration [4]: 0.37 ± 0.24 pg/mL | IL-6 concentration [4]: 4676.79 ± 1097.10 pg/mL | KC concentration [4]: 199.78 ± 50.25 pg/mL | MCP-1 concentration [4]: 250.79 ± 87.01 pg/mL | MIP-2 concentration [4]: 2022.27 ± 409.37 pg/mL | RANTES concentration [4]: 128.44 ± 24.46 pg/mL | TNF-α concentration [4]: 90.65 ± 20.41 pg/mL | IL-6 concentration [5]: 161.10 ± 59.69 pg/mL | MIP-2 concentration [5]: 17.36 ± 8.79* pg/ml | TNF-α concentration [5]: 5.22 ± 1.37 pg/mL | IL-10 concentration [6]: 23.11 ± 4.08 pg/mL | IL-1α concentration [7]: 21.02 ± 3.77 pg/mL | IL-6 concentration [7]: 279.78 ± 71.12 pg/mL | IL-10 concentration [7]: 80.76 ± 23.19 pg/mL | IL-17 concentration [7]: 1345.14 ± 590.38 pg/mL | KC concentration [7]: 10.78 ± 1.86 pg/mL | MCP-1 concentration [7]: 549.99 ± 220.33 pg/mL | concentration of C-telopeptide I in serum [8]: not significantly different | IL-10 concentration [9]: 3.75 ± 0.89 pg/mL | IL-17 concentration [9]: 4.73 ± 2.01 pg/mL | MCP-1 concentration [9]: 591.43 ± 222.2 pg/mL | mice showing a severe morphological defect in the paw joints [10]: four mice out of the seven mice
